Measurements as given in ChEMBL document CHEMBL5500343, “Activity refinement of aryl amino acetamides that target the P. falciparum STAR-related lipid transfer 1 protein” (Eur J Med Chem, 2024).
Values after ≈ are worked out from the molar mass of the structure shown. Active and inactive are the calls of the source. The rule behind the calls is not given here.

Assays:
Plasmodium falciparum [1] = experiment: Antimalarial activity against Plasmodium falciparum Dd2 assessed as reduction in parasite growth incubated for 72 hrs by [3H]-hypoxanthine incorporation assay; assay type: functional, organism-based
Plasmodium falciparum [2] = experiment: Antimalarial activity against MMV-048 resistant Plasmodium falciparum Dd2 harboring PI4K S743T mutant assessed as reduction in parasite growth incubated for 72 hrs by [3H]-hypoxanthine incorporation assay; assay type: functional, organism-based
Plasmodium falciparum [3] = experiment: Antimalarial activity against DDD-107498 resistant Plasmodium falciparum Dd2 harboring eEF2 Y86N mutant assessed as reduction in parasite growth incubated for 72 hrs by [3H]-hypoxanthine incorporation assay; assay type: functional, organism-based
Plasmodium falciparum [4] = experiment: Antimalarial activity against ELQ-300 resistant Plasmodium falciparum Dd2 harboring Cyt b I22L mutant assessed as reduction in parasite growth incubated for 72 hrs by [3H]-hypoxanthine incorporation assay; assay type: functional, organism-based
[5] = Binding affinity to recombinant Plasmodium falciparum START1 assessed as dissociation constant by isothermal titration calorimetry
Plasmodium falciparum [6] = experiment: Antimalarial activity against KAF-156 resistant Plasmodium falciparum Dd2 harboring CARL I1139K mutant assessed as reduction in parasite growth incubated for 72 hrs by [3H]-hypoxanthine incorporation assay; assay type: functional, organism-based
Plasmodium falciparum [7] = experiment: Antimalarial activity against asexual blood stage Plasmodium falciparum 3D7 assessed as reduction in parasite growth incubated for 72 hrs by LDH assay; assay type: functional, organism-based; conditions: 3D7, 72 h
[8] = Intrinsic clearance in rat hepatocyte measured per 10^6 cells at 1 uM incubated upto 90 mins by LC-MS/MS analysis; assay type: ADME, cell-based; conditions: rat hepatocytes, read-out: CLH
HepG2 = experiment: Cytotoxicity against human HepG2 cells assessed as reduction in cell viability incubated for 48 hrs by Cell Titer-Glo assay; assay type: functional, cell-based; conditions: HepG2, 48 h
[9] = Kinetic aqueous solubility of the compound in PBS at pH 7.4 incubated for 2 hr under shaking condition by shake flask based UV reader plate analysis; assay type: physicochemical; conditions: read-out: Kinetic_solubility
[10] = Intrinsic clearance in human liver microsomes at 1 uM incubated upto 60 mins in presence of NADPH by LC-MS/MS analysis; assay type: ADME, Microsome; conditions: read-out: CLH
[11] = Lipophilicity, LogD of compound in 1-Octanol and PBS at pH 7.4 at 7.5 uM incubated for 2 hrs shake flask method based LC-MS/MS analysis; assay type: physicochemical; conditions: 1-octanol/PBS
Plasmodium falciparum [12] = experiment: Antimalarial activity against MMV006833 resistant Plasmodium falciparum 3D7 assessed as reduction in parasite growth incubated for 72 hrs by LDH assay; assay type: functional, organism-based; conditions: 3D7, 72 h
Plasmodium falciparum [13] = experiment: Antimalarial activity against MMV006833 resistant Plasmodium falciparum 3D7 harboring START1 N309K mutant assessed as reduction in parasite growth incubated for 72 hrs by LDH assay; assay type: functional, organism-based; conditions: 3D7, 72 h
Plasmodium falciparum [14] = experiment: Antimalarial activity against MMV006833 resistant Plasmodium falciparum 3D7 harboring START1 N330K mutant assessed as reduction in parasite growth incubated for 72 hrs by LDH assay; assay type: functional, organism-based; conditions: 3D7, 72 h
Plasmodium falciparum [15] = experiment: Binding affinity to recombinant Plasmodium falciparum START1 assessed as change in enthalpy at 10 uM by isothermal titration calorimetry
Plasmodium falciparum [16] = experiment: Binding affinity to recombinant Plasmodium falciparum START1 assessed as change in entropy at 10 uM by isothermal titration calorimetry
[17] = Drug concentration in Swiss mouse plasma at 50 mg/kg,po administration measured upto 24 hrs by LC-MS/MS analysis; assay type: ADME, organism-based; conditions: in vivo
[18] = Drug concentration in Swiss mouse plasma at 50 mg/kg,po administration measured after 15 mins by LC-MS/MS analysis; assay type: ADME, organism-based
[19] = Apparent half life in Swiss mouse at 50 mg/kg,po administration measured for 4 to 24 hrs by LC-MS/MS analysis; assay type: ADME, organism-based; conditions: in vivo, time 4-24 hrs, read-out: t1/2(app) (converted)
[20] = Drug concentration in Swiss mouse plasma at 50 mg/kg,po administration measured after 12 hrs by LC-MS/MS analysis; assay type: ADME, organism-based; conditions: in vivo
[21] = Toxicity in Swiss mouse at 50 mg/kg,po administration measured upto 24 hrs by LC-MS/MS analysis; assay type: organism-based; conditions: in vivo
Plasmodium berghei = experiment: Antimalarial activity against Plasmodium berghei ANKA infected in mouse assessed as reduction of parasitaemia at 50 mg/kg,po bid administrated for 72 hrs and measured after 24 hrs post last dose by Giemsa staining based microscopic analysis; assay type: functional, organism-based; conditions: time 96.0 hrs
[22] = Toxicity in mouse infected with Plasmodium berghei ANKA assessed as change in body weight at 50 mg/kg,po bid administrated for 72 hrs and measured after 24 hrs post last dose; assay type: organism-based; conditions: in vivo
Plasmodium falciparum [23] = experiment: Antimalarial activity against DSM-265 resistant Plasmodium falciparum Dd2 harboring DHODH C276F mutant assessed as reduction in parasite growth incubated for 72 hrs by [3H]-hypoxanthine incorporation assay; assay type: functional, organism-based
Plasmodium falciparum [24] = experiment: Antimalarial activity against asexual blood stage Plasmodium falciparum Dd2-F6 assessed as minimum inoculum of resistance at 5 times IC50 measured for 35 days by SYBR Green I dye based flow cytometry; assay type: functional; conditions: time 35 day

SMILES	EC50 (Plasmodium falciparum [1])	Kd [5]	EC50 (Plasmodium falciparum [7])	hepatocyte CLint at 1 µM [8]	EC50 (HepG2)	solubility kinetic at 2 h [9]	microsomal CLint at 1 µM [10]	logD at 2 h, 7.5 µM [11]	deltaH (Plasmodium falciparum [15])	-TdeltaS (Plasmodium falciparum [16])	other results
CS(=O)(=O)c1ccc(-c2cnc(N)c(-c3ccc(C(F)(F)F)nc3)c2)cc1 [MMV-048]	16 nM										EC50 (Plasmodium falciparum [2]): 120 nM
O=C(NCCN1CCCC1)c1cc(-c2ccc(CN3CCOCC3)cc2)nc2ccc(F)cc12 [CABAMIQUINE]											EC50 (Plasmodium falciparum [3]): 850 nM
COc1cc2[nH]c(C)c(-c3ccc(Oc4ccc(OC(F)(F)F)cc4)cc3)c(=O)c2cc1Cl	21 nM										EC50 (Plasmodium falciparum [4]): 180 nM
Cc1cc(Cl)c(S(=O)(=O)N2CCCC2)cc1OCC(=O)NC1CCCCC1		42 nM									
CC1(C)c2nc(-c3ccc(F)cc3)c(Nc3ccc(F)cc3)n2CCN1C(=O)CN [GANAPLACIDE]	8 nM										EC50 (Plasmodium falciparum [6]): 1530 nM
C[C@H](Nc1ccc(Cl)c(S(=O)(=O)N2CCOCC2)c1)C(=O)Nc1cncc(Cl)c1		119 nM	54 nM	50 µL/min/1e6 cells	> 40 µM	77 µM (≈ 35.4 µg/mL)	> 462 µL/min/mg	3.1	-14.4 kcal/mol	4.8 kcal/mol	EC50 (Plasmodium falciparum [12]): 16 nM; EC50 (Plasmodium falciparum [13]): 7.8 µM; EC50 (Plasmodium falciparum [14]): 2600 nM
CC(C)(Nc1ccc(Cl)c(S(=O)(=O)N2CCOCC2)c1)C(=O)Nc1cncc(Cl)c1		14 nM	15 nM	68 µL/min/1e6 cells	> 40 µM	60 µM (≈ 28.4 µg/mL)	> 462 µL/min/mg	3.2	-11.6 kcal/mol	0.8 kcal/mol	Drug uptake [17]: Active; concentration at 0.25 h [18]: ~1200 nM; half-life [19]: 354 min; Drug uptake [20]: Active; Activity [21]: Non-Toxic; Activity (Plasmodium berghei): inactive; Activity [22]: Non-Toxic
Cc1cc(Nc2ccc(S(F)(F)(F)(F)F)cc2)n2nc(C(C)(F)F)nc2n1 [DSM-265]	24 nM										EC50 (Plasmodium falciparum [23]): 470 nM; Activity (Plasmodium falciparum [24]): 1.6 10^6No_unit
C[C@H](Nc1ccc(Cl)c(S(=O)(=O)N2CCOCC2)c1)C(=O)Nc1ccc(F)c(Cl)c1		66 nM	22 nM	> 92 µL/min/1e6 cells	> 40 µM	14 µM (≈ 6.67 µg/mL)	> 462 µL/min/mg	3.9	-17.7 kcal/mol	7.8 kcal/mol	EC50 (Plasmodium falciparum [12]): 3 nM; EC50 (Plasmodium falciparum [13]): 2.1 µM; EC50 (Plasmodium falciparum [14]): 1700 nM
